The text below walks through data of ChEMBL document CHEMBL1149012, “Effects of phenolic constituents from the mulberry tree on arachidonate metabolism in rat platelets” (J Nat Prod, 1986).

Broadly, the IC50 is the midpoint of a concentration-inhibition curve. Broadly, the inhibition is how much of the control response was suppressed. Read a high inhibition as a response far below the control. Broadly, the residual activity is the signal under treatment as a percentage of the control signal.

In assay [1] the test system is Platelet. Nature of the assay: Inhibition of 12-hydroxy-5,8,10-heptadecatrienoic acid formation in Wistar King platelets. The format is functional, cell-based. The settings on record: Rattus norvegicus.
Assay [2] deals with Platelet. In words: Inhibition of thromboxane B2 formation in Wistar King platelets. Type of assay: functional, cell-based. As to conditions: Rattus norvegicus.
In assay [3] the test system is Platelet. Nature of the assay: Stimulation of 12-hydroxy-5,8,10,14-eicosatetraenoic acid formation in Wistar King platelets at 10 uM. The format is functional, cell-based. The settings on record: Rattus norvegicus.
Assay [4] relates to Platelet. Nature of the assay: Stimulation of 12-hydroxy-5,8,10,14-eicosatetraenoic acid formation in Wistar King platelets at 1 mM. The format is functional, cell-based. The settings on record: Rattus norvegicus.
Assay [5] has as its system Platelet. Nature of the assay: Stimulation of 12-hydroxy-5,8,10,14-eicosatetraenoic acid formation in Wistar King platelets. As to conditions: Rattus norvegicus. The format is functional, cell-based.
Assay [6] deals with Platelet. Nature of the assay: Inhibition of 12-hydroxy-5,8,10,14-eicosatetraenoic acid formation in Wistar King platelets. The format is functional, cell-based. As to conditions: Rattus norvegicus.
The test system of assay [7] is Platelet. In words: Inhibition of 12-hydroxy-5,8,10-heptadecatrienoic acid formation in Wistar King platelets at 1 mM. The format is functional. As to conditions: Rattus norvegicus.
For assay [8], the system named is Platelet. In words: Inhibition of thromboxane B2 formation in Wistar King platelets at 1 mM. The format is functional. The settings on record: Rattus norvegicus.
Assay [9] relates to Platelet. Nature of the assay: Inhibition of 12-hydroxy-5,8,10,14-eicosatetraenoic acid formation in Wistar King platelets at 1 mM. Type of assay: functional. The settings on record: Rattus norvegicus.
For assay [10], the system named is Platelet. In words: Inhibition of 12-hydroxy-5,8,10,14-eicosatetraenoic acid formation in Wistar King platelets at 0.1 mM. As to conditions: Rattus norvegicus, values are per cent of control. Type of assay: functional.
Assay [11] concerns Platelet. Nature of the assay: Stimulation of 12-hydroxy-5,8,10,14-eicosatetraenoic acid formation in Wistar King platelets at 0.1 mM. Type of assay: functional, cell-based. As to conditions: Rattus norvegicus.

The source made the active and inactive calls. The calls are words filed in the database; no cut-off is given here.

With `CC(C)=CCc1c(O)ccc(C(=O)[C@@H]2[C@@H](c3c(O)cc(O)c4c(=O)c(CC=C(C)C)c(-c5ccc(O)cc5O)oc34)C=C(C)C[C@H]2c2ccc(O)cc2O)c1O` [KUMANON H], the values for the IC50 in assay [1] and in assay [2] were 24 µM and 75.7 µM, respectively. The outcome in assay [3], in assay [4] and in assay [5] was Active.
For `CC(C)=CCc1c(-c2ccc(O)cc2O)oc2c([C@H]3C=C(C)C[C@@H](c4ccc(O)cc4O)[C@@H]3C(=O)c3ccc(O)cc3O)c(O)cc(O)c2c1=O` [KUMANON G], the IC50 in [1] was 89.3 µM; in [2], 132 µM. The outcome in assay [3], in assay [4] and in assay [5] was Active.
For `CC(C)=CC[C@]12Oc3cc(O)c([C@H]4C=C(C)C[C@H](c5ccc(O)cc5O)[C@H]4C(=O)c4ccc(O)cc4O)c(O)c3C(=O)[C@@]1(O)Oc1cc(O)ccc12` [SANGGENON C], the IC50 came to 112 µM in [1] and 180 µM in assay [2]. The outcome in assay [3], in assay [4] and in assay [5] was Active.
On to `CC1=C[C@H]2c3c(O)cc(-c4cc5ccc(O)cc5o4)cc3O[C@@]3(c4ccc(O)cc4O)Oc4cc(O)ccc4[C@H](C1)[C@@H]23` [MULBERROFURAN G], for which the IC50 is 89 µM in [6], 10.7 µM in [1] and 34.7 µM in assay [2].
Regarding `OC[C@H]1O[C@@H](Oc2cc(O)cc(/C=C/c3ccc(O[C@@H]4O[C@H](CO)[C@@H](O)[C@H](O)[C@H]4O)cc3O)c2)[C@H](O)[C@@H](O)[C@@H]1O`, the outcome in assay [6], in assay [1] and in assay [2] was inactive.
For `CC(C)=CCc1c(-c2ccc(O)cc2O)oc2c([C@H]3Oc4cc(O)c5c(=O)c(CC=C(C)C)c(-c6ccc(O)cc6O)oc5c4[C@@H]4C=C(C)CC(C)(C)[C@H]34)c(O)cc(O)c2c1=O` [KUMANON M], the inhibition at 1000 µM in [7] came out at 81.5%; in [8], 87.3%; in [9], 68%.
Take `CC1=C[C@H](c2c(O)cc(-c3cc4ccc(O)cc4o3)cc2O)[C@@H](C(=O)c2ccc(O)cc2O)[C@H](c2ccc(O)cc2O)C1` [MULBERROFURAN J]: the IC50 stood at 823 µM in [6], 36.3 µM in assay [1] and 50.7 µM in assay [2]. For the same molecule, the residual activity at 100 µM in [10] stood at 194%. Further, in assay [11], the result was Active. In addition, in [9], testing at 1000 µM gave an inhibition of 35.5%.
`CC(C)=CCC12Oc3cc(O)ccc3C1(O)Oc1cc(O)c([C@H]3C=C(C)C[C@@H](c4ccc(O)cc4O)[C@@H]3C(=O)c3ccc(O)cc3O)c(O)c1C2=O` (stereo not given in full) [SANGGENON D]: the values for the IC50 in [1] and in assay [2] were 43.3 µM and 48.3 µM, respectively. Also, the residual activity at 100 µM in assay [10] is 256%. In assay [11], the result was Active. For the same molecule, the inhibition at 1000 µM in assay [9] stood at 51%.
Turning to `CC12C[C@@H](c3ccc(O)cc3O1)C13OC1(c1ccc(O)cc1O)Oc1cc(-c4cc5ccc(O)cc5o4)cc(O)c1C3C2=O` (stereo not given in full) [MULBERROFURAN Q], the IC50 amounted to 227 µM in assay [1] and 355 µM in assay [2]. For the same molecule, the result in assay [3], in assay [4] and in assay [5] was Active.
